Legend:
[1] = system: Human immunodeficiency virus 1; experiment: Anti-viral activity was determined; type: functional; settings: read-out: CIC95
[2] = Ratio (CIC95/IC50) of cellular antiviral activity over the isolated enzyme potency; type: functional
[3] = molecular target: T1, Human immunodeficiency virus type 1 protease (Human immunodeficiency virus 1, UniProt Q72874); experiment: Inhibitory activity against HIV-1 protease was determined
[4] = molecular target: T1, Human immunodeficiency virus type 1 protease; experiment: Inhibitory activity against HIV-1 protease mutant was determined

Question: Which results are given for `CC(C)(C)NC(=O)[C@@H]1CN(Cc2cccnc2)CCN1C[C@@H](O)C[C@@H](Cc1ccccc1)C(=O)N[C@H]1c2ccccc2C[C@H]1O.O`?
Answer: IC95 [1]: 0.025 µM; C/I [2]: 69

Question: With `CC(C)C[C@@]1(C2=C(O)[C@](Cc3ccccc3)(C[C@H](O)[C@H](Cc3ccccc3)NC(=O)OC(C)(C)C)N=C2)N=CC([C@@H](Cc2ccccc2)C(N)=O)=C1O` as the compound, how does the IC95 [1] read?
Answer: 1.5 µM

Question: What about the IC50 [3] of the same compound?
Answer: 10 nM

Question: Which results are given for `CC(C)(C)OC(=O)N[C@@H](Cc1ccccc1)[C@@H](O)C[C@@H](Cc1ccccc1)C(=O)N[C@H]1c2ccccc2C[C@H]1O`?
Answer: IC95 [1]: 0.4 µM; C/I [2]: 1333

Question: For `CC(C)(C)OC(=O)N[C@@H](Cc1ccccc1)[C@@H](O)C[C@]1(Cc2ccccc2)N=CC(C2c3ccccc3C[C@H]2O)=C1O` (single isomer, unassigned; (-)), which IC95 [1] is on record?
Answer: 0.8 µM

Question: For `CC(C)C[C@@]1(C2=C(O)[C@](Cc3ccccc3)(C[C@H](O)[C@H](Cc3ccccc3)NC(=O)OC3CCOC3)N=C2)N=CC([C@@H](Cc2ccccc2)C(N)=O)=C1O` (single isomer, unassigned; (-)), which IC95 [1] is on record?
Answer: 0.8 µM

Question: What about the IC50 [3] of the same compound?
Answer: 1.3 nM

Question: Which IC95 [1] does the source give for `O=C(N[C@@H](Cc1ccccc1)[C@@H](O)C[C@]1(Cc2ccccc2)N=CC(C2CNC(=O)c3ccccc32)=C1O)O[C@H]1CCOC1` (single isomer, unassigned; (+)) here?
Answer: 0.781 µM

Question: And the C/I [2]?
Answer: 137

Question: With `O=C(N[C@@H](Cc1ccccc1)[C@@H](O)C[C@]1(Cc2ccccc2)N=CC(C2c3ccccc3C[C@H]2O)=C1O)O[C@H]1CCOC1` (single isomer, unassigned; (-)) as the compound, how does the IC95 [1] read?
Answer: 0.1 µM

Question: What about the IC50 [4] of the same compound?
Answer: 129 nM

Question: With `NC(=O)O[C@@H]1Cc2ccccc2C1C1=C(O)[C@](Cc2ccccc2)(C[C@H](O)[C@H](Cc2ccccc2)NC(=O)O[C@H]2CCOC2)N=C1` (single isomer, unassigned; (-)) as the compound, how does the IC95 [1] read?
Answer: 0.25 µM

Question: What about the IC50 [4] of the same compound?
Answer: 364 nM

Question: What about the C/I [2] of the same compound?
Answer: 125

Question: Which results are given for `O=C(N[C@@H](Cc1ccccc1)[C@@H](O)C[C@@H](Cc1ccccc1)C(=O)N[C@H]1c2ccccc2C[C@H]1O)OC1CCOC1` (stereo partly drawn)?
Answer: IC95 [1]: 0.003 µM; C/I [2]: 100
